Columns and labels:
Assay type in all cases: in vivo
[1] = system: Scn1a^+/− mice; experiment: Eight-arm radial arm maze (RAM) test, cognition, Study II; conditions: CBD 100 mg/kg s.c. twice daily
Method: Here, Scn1a^+/− were randomly divided into two groups and subcutaneously injected with either CBD (100 mg/kg twice daily; n=12) or its vehicle (ethanol:Kolliphor®:0.9% saline=2:1:17; n=29) from P8 onwards until P52 or death (whichever was earlier).
A radial arm maze (RAM) consisting of eight arms (each arm 60×10 cm; raised at 50 cm above the floor) was used to assess the reference memory (RM) and working memory (WM) of the animals. On four consecutive days, animals were given two 10-minute sessions of habituation to the test apparatus and rules of the test, separated by a 90 min interval. During the first two days of habituation, food rewards (¼ Cheerios®, Nestle) were randomly scattered on the floor of the apparatus covering all arms and food-troughs at the end of each arm. On the 3rd and 4th habituation day, food rewards were placed only in food troughs of four randomly selected arms (fixed for each animal during the habituation and test day). Food was withdrawn 4-6 hours before the trial (both during habituation and test days) to motivate the animals to locate the rewards and thus perform the task. On the test day two trials of 10 min were conducted at 90 min interval and the activity of the animals were video recorded for offline blinded coding after the end of experiment. Entry to a non-baited arm was considered as a reference memory error (RME), whereas re-entry to a previously baited arm from which the food was already taken is considered as a working memory error (WME). The mean WME or RME were calculated from the two test trials.
In Study II, the data were analysed in GraphPad Prism 6 software. Survival curves of Scn1a^+/− vehicle-treated and Scn1a^+/− CBD-treated group were compared using a Mantel-Cox test. The percentage of animals from the Scn1a^+/− vehicle-treated and Scn1a^+/− CBD-treated groups that survived until the end of the study (P52) were compared by Fisher's exact test. Further, data obtained from the comorbidity assessment were checked for normality by D'Agostino & Pearson omnibus normality test. Data obtained from rotarod, gait, social interaction (active interaction), EPM, sucrose preference, RAM (RME) tests were normally distributed and the differences between the three groups were analysed by one-way ANOVA. If a significant difference was found then Holm-Sidak post-hoc test was conducted among the groups. […] Upon observing a significant difference, the Dunn's post-hoc test was employed to compare the groups. Multiple comparisons were corrected in all cases. Parametric data are presented in scattered dot plot in the figures and are expressed as mean±SEM. Non-parametric data are presented in box plot in the figures and are expressed as median, min to max, and interquartile range (IQR). […]

[2] = system: Scn1a^−/− mice; experiment: Survival in Scn1a^−/− mice, Study I (acute model of Dravet syndrome); conditions: CBD-treated Scn1a^−/− mice; 100 mg/kg s.c. twice daily from P8; n=10; vehicle 15.5 days; Mantel-Cox p=0.003; FIG. 1B
Method: Following genotyping, animals were randomly divided into four groups WT vehicle-treated, WT CBD-treated, Scn1a^−/− vehicle-treated and Scn1a^−/− CBD-treated (n=10/group). They were injected subcutaneously twice daily with either CBD (100 mg/kg) or its vehicle (ethanol:Kolliphor®:0.9% saline=2:1:17) from P8 until P25 or death (whichever was earlier).
Animal suffering was minimised by employing a validated, welfare scoring system alongside a mathematical model to predict death. In this way, any animal for which the model predicted death could be sacrificed 0.5 day before enduring the maximal severity of the disease.
Additionally, surface temperature (ST) threshold was employed such that if the sum of the ST scores over the last 1.5 days, was equal to or greater than 3, the animal would be killed by cervical dislocation within 0.5 day.
In Study I, the welfare parameters were analysed using SPSS 24 (IBM SPSS Statistics®, UK), whilst survival data were analysed using GraphPad Prism 6 software (GraphPad Software, Inc., USA). Data obtained from welfare parameters were compared using a three-way ANOVA to observe the main effects of treatment, genotype and time, and their two-way and three-way interactions. […] All the data are expressed as mean±SEM. […]

[3] = system: Scn1a^+/− mice; experiment: Survival / premature mortality in Scn1a^+/− mice, Study II (chronic model of Dravet syndrome)
Method: The animals were group housed throughout Study II except for 3 days during sucrose preference test when each animal was individually housed. This experiment was conducted in dark cycle (dim red light, 8:00-20:00 h). Male 129S-Scn1^atm1Kea/Mmjax heterozygote mice (Jackson Laboratory, USA) were bred with female wild type C57BL/6 mice (Charles River, UK) to obtain Scn1a^+/− and wild type (WT) littermate mice used in this study. At the end of the study, animals were humanely killed by cervical dislocation. […]
As seizure-related deaths in this model were unpredictable, animals were video monitored continuously (24 h×7 days) throughout the study and any mortality observed was cross checked with the available video footage to confirm the reason of death.
In Study II, the data were analysed in GraphPad Prism 6 software. […] Data obtained from rotarod, gait, social interaction (active interaction), EPM, sucrose preference, RAM (RME) tests were normally distributed and the differences between the three groups were analysed by one-way ANOVA. […] Parametric data are presented in scattered dot plot in the figures and are expressed as mean±SEM. Non-parametric data are presented in box plot in the figures and are expressed as median, min to max, and interquartile range (IQR). […]

C=C(C)[C@@H]1CCC(C)=C[C@H]1c1c(O)cc(CCCCC)cc1O [CBD, cannabidiol]
reference memory errors (RME), Scn1a^+/− CBD-treated versus WT vehicle-treated ([1]; p=0.65): No difference | working memory errors (WME), Scn1a^+/− CBD-treated versus WT vehicle-treated ([1]; p>0.9999): not differed | reference memory errors (RME), Scn1a^+/− vehicle-treated compared to Scn1a^+/− CBD-treated ([1]; statement describes vehicle group relative to CBD group (n=10), p<0.0001, FIG. 4E): significantly more RME | working memory errors (WME), Scn1a^+/− vehicle-treated compared to Scn1a^+/− CBD-treated ([1]; statement describes vehicle group relative to CBD group, p=0.001, FIG. 4F): significantly more WME | median survival [2]: 16.25 days | survival curve, Scn1a^+/− vehicle-treated versus CBD-treated ([3]; CBD 100 mg/kg s.c. twice daily from P8 until P52 or death, n=12 CBD, n=29 vehicle, Mantel-Cox p=0.04, FIG. 2A): Survival was significantly less in Scn1a^+/− vehicle-treated group | animals that died before the completion of the study (P52) ([3]; Scn1a^+/− CBD-treated, 2 of 12, CBD 100 mg/kg s.c. twice daily from P8, vehicle approximately 66% (19 of 29), p<0.0001, FIG. 2B): 17%
